# In US10174001B2, “Crystals of 5-cyclopropyl-2-((1-(3-fluorobenzyl)-1H-indol-5-yl)amino)nicotinic acid” (FUJIFILM Toyama Chemical Co., Ltd., priority 2015, dated 2019):
# Columns and labels:
# [1] = Test Example 2: Physical Stability (mixed α/β crystals stirred in solvent, crystal form by infrared absorption spectrum); format: physicochemical
# Protocol: The α-form crystal (1 part by weight) and the β-form crystal (1 part by weight) were mixed, suspended in a solvent (ethyl acetate/ethanol=5/1.5 parts by weight) and stirred at 26, 70 or 100° C.
# Sampling was carried out over time and crystal forms were measured by the infrared absorption spectrum.
# [2] = Test Example 4: Stability (HPLC purity and crystal form on storage); format: physicochemical; details: for Purity (%): HPLC
# Protocol: The α-form crystal and the β-form crystal were preserved under the conditions of 40 or 60° C. and a relative humidity of 75%.
# Twelve weeks after the test started, the purity was measured by HPLC. Additionally, crystal forms were measured by the infrared absorption spectrum.
# HPLC Measurement conditions
# Measurement wavelength: 270 nm
# Column: Ascentis Express C18, inner diameter 3.0 mm×length 150 mm
# Column temperature: 40° C.
# Mobile phase: 0.1% phosphoric acid/(acetonitrile/water=60/40) solution
# [3] = Test Example 3: Hygroscopicity (rate of weight change and crystal form); format: physicochemical; details: for Stability (hygroscopicity test): 25° C., relative humidity of 75 or 97%
# Protocol: The α-form crystal and the β-form crystal were preserved under the conditions of 25° C. and a relative humidity of 75 or 97%.
# Sampling was carried out over time and the weights of crystals were measured to determine rates of weight changes. Additionally, crystal forms were measured by the infrared absorption spectrum.
# Rate of weight change (%)=((B−A)/A)×100
# A: Crystal weight before the test started
# B: Crystal weight after the test started
# [4] = Test Example 1: Solubility in various organic solvents; format: physicochemical; details: for solubility at 24 h: organic solvent or mixture, thermodynamic from solid; for solubility at 24 h / Solubility: stirred for 24 hours
# Protocol: The α-form crystal (about 100 mg) or the β-form crystal (about 100 mg) was suspended in various organic solvents (about 1 mL) and stirred for 24 hours. Impurities were filtered off using a membrane filter and the filtrate was analyzed by HPLC to determine the solubility.
# keratinocyte = details: cited from earlier work
Compound,"Crystal form ([2]; 40° C. 75% RH, 0 hr)","Purity (%) ([2]; 40° C. 75% RH, 0 hr)","Crystal form ([2]; 40° C. 75% RH, 12 weeks)","Purity (%) ([2]; 40° C. 75% RH, 12 weeks)","Crystal form ([2]; 60° C. 75% RH, 0 hr)","Purity (%) ([2]; 60° C. 75% RH, 0 hr)","Crystal form ([2]; 60° C. 75% RH, 12 weeks)","Purity (%) ([2]; 60° C. 75% RH, 12 weeks)","Crystal form ([3]; 25° C. 75% RH, 0 hr)","Rate of weight change (%) ([3]; 25° C. 75% RH, 0 hr)","Crystal form ([3]; 25° C. 75% RH, 2 weeks)","Rate of weight change (%) ([3]; 25° C. 75% RH, 2 weeks)","Crystal form ([3]; 25° C. 75% RH, 4 weeks)","Rate of weight change (%) ([3]; 25° C. 75% RH, 4 weeks)","Crystal form ([3]; 25° C. 75% RH, 8 weeks)","Rate of weight change (%) ([3]; 25° C. 75% RH, 8 weeks)","Crystal form ([3]; 25° C. 75% RH, 12 weeks)","Rate of weight change (%) ([3]; 25° C. 75% RH, 12 weeks)","Crystal form ([3]; 25° C. 97% RH, 0 hr)","Rate of weight change (%) ([3]; 25° C. 97% RH, 0 hr)",also measured
"O=C(O)c1cc(C2CC2)cnc1Nc1ccc2c(ccn2Cc2cccc(F)c2)c1 [α-Form crystal, 5-cyclopropyl-2-((1-(3-fluorobenzyl)-1H-indol-5-yl)amino)nicotinic acid]",α,99.4,α,99.5,α,99.4,α,99.5,α,0.00,α,0.08,α,0.08,α,0.24,α,0.22,α,0.00,"Crystal transition ([1]; mixed crystals stirred at 26, 70 or 100° C.): transitioned to the β-form crystal; Crystal form ([3]; 25° C. 97% RH, 2 weeks): α; Rate of weight change (%) ([3]; 25° C. 97% RH, 2 weeks): 0.13%; Crystal form ([3]; 25° C. 97% RH, 4 weeks): α; Rate of weight change (%) ([3]; 25° C. 97% RH, 4 weeks): 0.17%; Crystal form ([3]; 25° C. 97% RH, 8 weeks): α; Rate of weight change (%) ([3]; 25° C. 97% RH, 8 weeks): 0.38%; Crystal form ([3]; 25° C. 97% RH, 12 weeks): α; Rate of weight change (%) ([3]; 25° C. 97% RH, 12 weeks): 0.32%; Stability (hygroscopicity test) [3]: stable; solubility at 24 h ([4]; 2-propanol): 3.5 mg/mL; solubility at 24 h ([4]; acetone): 55 mg/mL; solubility at 24 h ([4]; acetonitrile): 3.1 mg/mL; solubility at 24 h ([4]; ethanol): 8.8 mg/mL; solubility at 24 h ([4]; ethyl acetate): 19.7 mg/mL; solubility at 24 h ([4]; isopropyl acetate): 11.5 mg/mL; solubility at 24 h ([4]; methyl ethyl ketone): 63.1 mg/mL; solubility at 24 h ([4]; methyl tert-butyl ether): 10.1 mg/mL"
"O=C(O)c1cc(C2CC2)cnc1Nc1ccc2c(ccn2Cc2cccc(F)c2)c1 [β-Form crystal, 5-cyclopropyl-2-((1-(3-fluorobenzyl)-1H-indol-5-yl)amino)nicotinic acid]",β,99.6,β,99.7,β,99.6,β,99.7,β,0.00,β,0.07,β,0.07,β,0.20,β,0.18,β,0.00,"Relative stability of crystal forms ([1]; concluded from crystal transition in suspension): more stable than the α-form crystal; Crystal form ([3]; 25° C. 97% RH, 2 weeks): β; Rate of weight change (%) ([3]; 25° C. 97% RH, 2 weeks): 0.10%; Crystal form ([3]; 25° C. 97% RH, 4 weeks): β; Rate of weight change (%) ([3]; 25° C. 97% RH, 4 weeks): 0.11%; Crystal form ([3]; 25° C. 97% RH, 8 weeks): β; Rate of weight change (%) ([3]; 25° C. 97% RH, 8 weeks): 0.26%; Crystal form ([3]; 25° C. 97% RH, 12 weeks): β; Rate of weight change (%) ([3]; 25° C. 97% RH, 12 weeks): 0.25%; Stability (hygroscopicity test) [3]: stable; Solubility ([4]; 2-Propanol): 3.0 mg/mL; Solubility ([4]; Acetone): 48.9 mg/mL; Solubility ([4]; Acetonitrile): 2.7 mg/mL; Solubility ([4]; Ethanol): 6.8 mg/mL; Solubility ([4]; Ethyl acetate): 16.8 mg/mL; Solubility ([4]; Isopropyl acetate): 9.8 mg/mL; Solubility ([4]; Methyl ethyl ketone): 55.3 mg/mL; Solubility ([4]; Methyl tert-butyl ether): 8.1 mg/mL; Relative stability of crystal forms ([4]; concluded from solubility): more stable than the α-form crystal; Solubility compared between crystal forms ([4]; various organic solvents): lower than the solubility of the α-form crystal"
"O=C(O)c1cc(C2CC2)cnc1Nc1ccc2c(ccn2Cc2cccc(F)c2)c1 [Compound A, 5-Cyclopropyl-2-((1-(3-fluorobenzyl)-1H-indol-5-yl)amino)nicotinic acid]",,,,,,,,,,,,,,,,,,,,,Antiproliferative activity on keratinocyte (keratinocyte): excellent antiproliferative activity on keratinocyte
